# In article PMC6016456, “Human DHEA sulfation requires direct interaction between PAPS synthase 2 and DHEA sulfotransferase SULT2A1” (The Journal of Biological Chemistry, 2018):
# Target: T1, SULT2A1 (Homo sapiens, UniProt Q06520)
# T1 construct: expressed from a SULT2A1 vector in HEK293 cells, co-expressed with PAPS synthase EGFP fusions
# T1 sequence (Q06520 1-285): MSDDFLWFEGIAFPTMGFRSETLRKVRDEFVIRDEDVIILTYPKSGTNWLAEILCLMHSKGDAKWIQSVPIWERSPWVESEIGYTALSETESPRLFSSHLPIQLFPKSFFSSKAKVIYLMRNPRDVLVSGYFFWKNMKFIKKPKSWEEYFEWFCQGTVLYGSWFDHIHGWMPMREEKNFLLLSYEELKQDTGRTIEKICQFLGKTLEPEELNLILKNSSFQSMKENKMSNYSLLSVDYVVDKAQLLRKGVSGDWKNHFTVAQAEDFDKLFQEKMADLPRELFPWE
# Test: DHEA sulfation assay in transfected HEK293 cells
# Format: cell-based
# Details: co-expressed PAPS synthase supplies PAPS
compound,measurement,value
C[C@]12CC[C@H](O)CC1=CC[C@@H]1[C@@H]2CC[C@]2(C)C(=O)CC[C@@H]12 [DHEA],conversion rate,co-express PAPS synthase protein variants with cytoplasmic SULT2A1
